Patent US12240844B2 (Voronoi, Inc., priority 2019, dated 2025)

What was measured:
[1] = biological target: T1, human GST-DYRK1A (full length) (Homo sapiens, UniProt Q13627); assay: GST-DYRK1A enzyme inhibition, ADP-Glo kinase assay; type: biochemical; details: read-out: DYRK1 IC50
T1 construct: purified human GST-DYRK1A (full length, Thermo scientifics) enzyme; GST; purchased Thermo scientifics
Method in brief: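 Full-length human GST-DYRK1A (10 ng) incubated with 10 uM ATP and specific substrate for 1 h at 25° C in 40 mM Tris-HCl pH 7.4, 20 mM MgCl2, 0.5 mg/mL BSA, 50 uM DTT. ADP formation read by ADP-Glo luminescence; IC50 (nM) versus solvent control, triplicate.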

LRRK2 (G2019S) = LRRK2 (G2019S) (Homo sapiens, UniProt Q5S007, G2019S); assay: LRRK2 G2019S enzyme inhibition, ADP-Glo kinase assay; type: biochemical; set-up: purchased SignalChem L10-12GG
Sequence of LRRK2 (G2019S) (Q5S007 970-2527 G2019S limits assumed): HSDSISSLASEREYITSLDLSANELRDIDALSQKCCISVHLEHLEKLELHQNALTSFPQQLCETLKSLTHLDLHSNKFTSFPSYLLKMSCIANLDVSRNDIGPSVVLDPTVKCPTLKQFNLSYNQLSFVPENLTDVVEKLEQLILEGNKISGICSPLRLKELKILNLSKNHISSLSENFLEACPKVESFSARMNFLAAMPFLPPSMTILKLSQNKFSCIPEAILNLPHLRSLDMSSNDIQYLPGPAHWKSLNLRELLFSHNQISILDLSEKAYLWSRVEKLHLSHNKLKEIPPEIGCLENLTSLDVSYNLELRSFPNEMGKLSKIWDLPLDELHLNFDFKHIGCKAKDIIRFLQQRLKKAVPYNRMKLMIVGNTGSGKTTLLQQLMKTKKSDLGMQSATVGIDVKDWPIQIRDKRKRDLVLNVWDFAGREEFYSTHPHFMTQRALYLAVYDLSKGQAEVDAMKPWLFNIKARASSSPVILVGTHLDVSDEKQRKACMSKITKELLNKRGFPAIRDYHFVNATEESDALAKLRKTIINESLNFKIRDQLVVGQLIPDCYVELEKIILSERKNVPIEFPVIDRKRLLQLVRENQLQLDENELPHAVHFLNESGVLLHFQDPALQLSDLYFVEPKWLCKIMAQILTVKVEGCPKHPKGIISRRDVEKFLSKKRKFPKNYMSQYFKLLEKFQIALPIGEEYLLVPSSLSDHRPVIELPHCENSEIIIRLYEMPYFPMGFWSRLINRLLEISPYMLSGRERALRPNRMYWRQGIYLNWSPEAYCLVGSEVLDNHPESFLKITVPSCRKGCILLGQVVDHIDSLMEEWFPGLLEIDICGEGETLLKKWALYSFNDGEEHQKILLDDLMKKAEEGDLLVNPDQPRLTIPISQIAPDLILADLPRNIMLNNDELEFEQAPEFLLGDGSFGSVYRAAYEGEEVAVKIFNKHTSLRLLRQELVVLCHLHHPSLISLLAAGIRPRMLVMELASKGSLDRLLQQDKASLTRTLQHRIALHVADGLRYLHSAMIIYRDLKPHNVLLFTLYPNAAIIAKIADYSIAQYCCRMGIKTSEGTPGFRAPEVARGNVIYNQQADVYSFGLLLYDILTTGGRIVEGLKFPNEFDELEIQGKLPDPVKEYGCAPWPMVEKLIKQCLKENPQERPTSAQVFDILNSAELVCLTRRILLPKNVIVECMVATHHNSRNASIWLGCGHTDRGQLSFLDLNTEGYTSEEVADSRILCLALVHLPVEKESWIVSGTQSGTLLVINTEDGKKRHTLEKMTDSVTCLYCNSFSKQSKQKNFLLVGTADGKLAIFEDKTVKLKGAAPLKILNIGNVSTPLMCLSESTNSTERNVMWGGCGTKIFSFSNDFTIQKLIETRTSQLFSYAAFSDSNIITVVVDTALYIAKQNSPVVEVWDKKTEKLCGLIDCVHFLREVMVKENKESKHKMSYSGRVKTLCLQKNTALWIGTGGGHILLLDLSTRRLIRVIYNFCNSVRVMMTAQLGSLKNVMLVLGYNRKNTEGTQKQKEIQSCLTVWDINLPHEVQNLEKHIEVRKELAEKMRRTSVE
Method in brief: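 Purified human LRRK2 G2019S (16 ng) with 25 μM ATP and 0.2 μg substrate, 2 h at 25° C in 40 mM Tris-HCl pH 7.4, 20 mM MgCl2, 0.5 mg/ml BSA, 50 μM DTT; compound at 12 final concentrations from 50 μM downward. ADP-Glo luminescence versus solvent control gave IC50 (nM).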

human GST-CLK1 (129-end) = biological target: T2, human GST-CLK1 (129-end) (Homo sapiens, UniProt P49759); assay: GST-CLK1 enzyme inhibition, ADP-Glo kinase assay; type: biochemical; details: ATP 10 uM
T2 construct: purified human GST-CLK1 (129-end, Signalchem) enzyme; GST; purchased Signalchem
T2 sequence (P49759 129-484 limits assumed): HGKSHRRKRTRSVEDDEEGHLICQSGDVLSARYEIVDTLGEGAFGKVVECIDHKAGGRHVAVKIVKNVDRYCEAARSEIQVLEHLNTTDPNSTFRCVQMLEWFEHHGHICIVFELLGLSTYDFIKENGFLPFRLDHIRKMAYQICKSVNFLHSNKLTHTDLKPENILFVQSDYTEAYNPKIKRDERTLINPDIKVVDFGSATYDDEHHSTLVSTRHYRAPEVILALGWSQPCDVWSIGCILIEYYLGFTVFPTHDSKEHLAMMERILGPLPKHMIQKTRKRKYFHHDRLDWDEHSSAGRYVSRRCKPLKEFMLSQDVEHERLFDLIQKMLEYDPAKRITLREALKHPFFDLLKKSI
Method in brief: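 GST-CLK1 (129-end, 3 ng) reacted with 10 uM ATP and substrate in 40 mM Tris-HCl pH 7.4, 20 mM MgCl2, 0.5 mg/mL BSA, 50 uM DTT, 1 h at 25° C. ADP-Glo luminescence normalised to solvent control; IC50 from triplicate data.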

MDA-MB-231 cell line = assay: MDA-MB-231 cancer cell proliferation inhibition (Cell Titer-Glo); type: cell-based; details: Homo sapiens, MDA-MB-231 triple-negative breast cancer cell line, 72 hours
Method: (§1) In order to evaluate the cancer cell proliferation inhibitory activity of the compounds of the present invention, the following experiments were performed.
(§2) To evaluate the cancer cell proliferation inhibitory effect, the cell growth rate analysis was performed while culturing MDA-MB-231 cell line (Korean Cell Line Bank #30026) and MDA-MB-468 cell line as the triple-negative breast cancer cell line, and SHP-77 (ATCC #CRL-2195) as the small cell lung cancer cell line in DMEM (HyClone #SH30243) and RPMI medium (HyClone #SH3027.01), respectively. More specifically, the cell lines were each plated at 2000 cells/100 μl in each well of a 96-well flat-bottom plate (coming #3903), and then the example compounds having eleven concentrations which were diluted by ⅓ so that the final concentrations were 10.000000, 3.333333, 1.111111, 0.370370, 0.123457, 0.041152, 0.013717, 0.004572, 0.001524, 0.000508 and 0.000169 μM were treated. After 72 hours, 100 μl of Cell Titer-Glo (Promega G7573) was treated, incubated at RT for 10 minutes, and then luminescence was measured using a microplate reader. The measured luminescence degree was calculated as GI50 using Prism (version 8.2 GraphPad) software.
(§3) In the table below, the following designations were used for the evaluation of proliferation inhibitory activity.

LRRK2 = LRRK2 (Homo sapiens, UniProt Q5S007); assay: LRRK2 enzyme inhibition, ADP-Glo kinase assay; type: biochemical; set-up: purchased Invitrogen PR8604B
Sequence of LRRK2 (Q5S007 970-2527 limits assumed): as the sequence (Q5S007 970-2527 G2019S limits assumed) above, with S1050G counted along it
Method in brief: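 Purified human LRRK2 (25 ng) in 40 mM Tris-HCl pH7.4, 20 mM MgCl2, 0.5 mg/ml BSA, 50 μM DTT with 10 μM ATP and substrate ([…]), 2 h at 25° C. Final compound 50 to 0.000001024 μM, 12-point dilution. ADP-Glo luminescence vs solvent control; IC50 (nM).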

SHP-77 = SHP-77 cancer cell proliferation inhibition (Cell Titer-Glo); type: cell-based; details: Homo sapiens, SHP77, SHP-77 small cell lung cancer cell line, 72 hours
Method: as §1, §2, §3

IC50 [1] [nM] | IC50 (LRRK2 (G2019S)) [nM] | IC50 (human GST-CLK1 (129-end)) [nM] | GI50 (MDA-MB-231 cell line) [nM] | IC50 (LRRK2) [nM] | GI50 (SHP-77) [nM] | Compound
101 to 300 | < 100 | 301 to 1000 | 101 to 300 | 101 to 300 | 301 to 1000 | CNc1cc(Nc2ccc(S(=O)(=O)N3CCOCC3)c3c2OCCO3)nc2[nH]cc(C(F)(F)F)c12 [Example 98, N^4-methyl-N^6-(8-(morpholonosulfonyl)-2,3-dihydrobenzo[b] [1,4]dioxin-5-yl)-3-(trifluoromethyl)-1H-pyrrolo[2,3-b]pyridine-4,6-diamine]
301 to 1000 | 301 to 1000 | 301 to 1000 | 301 to 1000 | 301 to 1000 | 301 to 1000 | CCNc1cc(Nc2ccc(S(=O)(=O)N3CCOCC3)c3c2OCCO3)nc2[nH]cc(C(F)(F)F)c12 [Example 99, N^4-ethyl-N^6-(8-(morpholonosulfonyl)-2,3-dihydrobenzo[b] [1,4]dioxin-5-yl)-3-(trifluoromethyl)-1H-pyrrolo[2,3-b]pyridine-4,6-diamine]
< 100 | 301 to 1000 | 301 to 1000 | 301 to 1000 | 301 to 1000 | 301 to 1000 | O=S(=O)(c1ccc(Nc2cc(C3CC3)c3c(C(F)(F)F)c[nH]c3n2)c2c1OCCO2)N1CCOCC1 [Example 100, 4-cyclopropyl-N-(8-(morpholinosulfonyl)-2,3-dihydrobenzo[b] [1,4]dioxin-5-yl)-3-(trifluoromethyl)-1H-pyrrolo[2,3-b]pyridine-6-amine]
301 to 1000 | 101 to 300 | 301 to 1000 | 51 to 100 | < 100 | < 50 | COc1cc(S(=O)(=O)N2CCOCC2)ccc1Nc1cc(NC2CC2)c2c(C#N)c[nH]c2n1 [Example 127, 4-(cyclopropylamino)-6-((2-methoxy-4-(morpholinosulfonyl)phenyl)amino)-1H-pyrrolo[2,3-b]pyridine-3-carbonitrile]
301 to 1000 | 301 to 1000 | 301 to 1000 | 51 to 100 | < 100 | < 50 | COc1cc(S(=O)(=O)N2CCOCC2)ccc1Nc1cc(NC2CCC2)c2c(C#N)c[nH]c2n1 [Example 128, 4-(cyclobutylamino)-6-((2-methoxy-4-(morpholinosulfonyl)phenyl)amino)-1H-pyrrolo[2,3-b]pyridine-3-carbonitrile]
301 to 1000 | < 100 | 301 to 1000 | 101 to 300 | < 100 | < 50 | COCCNc1cc(Nc2ccc(S(=O)(=O)N3CCOCC3)cc2OC)nc2[nH]cc(C#N)c12 [Example 129, 6-((2-methoxy-4-(morpholinosulfonyl)phenyl)amino)-4-((2-methoxyethyl)amino)-1H-pyrrolo[2,3-b]pyridine-3-carbonitrile]
101 to 300 | < 100 | 301 to 1000 | 301 to 1000 | < 100 | 301 to 1000 | COc1cc(S(=O)(=O)N2CCOCC2)ccc1Nc1cc(NCCS(C)(=O)=O)c2c(C#N)c[nH]c2n1 [Example 130, 6-((2-methoxy-4-(morpholinosulfonyl)phenyl)amino)-4-((2-(methylsulfonyl)ethyl)amino)-1H-pyrrolo[2,3-b]pyridine-3-carbonitrile]
301 to 1000 | < 100 | 301 to 1000 | 51 to 100 | < 100 | < 50 | CNc1cc(Nc2ccc(S(=O)(=O)N3CCOCC3)cc2OC)nc2[nH]cc(C#N)c12 [Example 131, 6-((2-methoxy-4-(morpholinosulfonyl)phenyl)amino)-4-(methylamino)-1H-pyrrolo[2,3-b]pyridine-3-carbonitrile]
301 to 1000 | 101 to 300 | 301 to 1000 | 101 to 300 | < 100 | 51 to 100 | CCNc1cc(Nc2ccc(S(=O)(=O)N3CCOCC3)cc2OC)nc2[nH]cc(C#N)c12 [Example 132, 4-(ethylamino)-6-((2-methoxy-4-(morpholinosulfonyl)phenyl)amino)-1H-pyrrolo[2,3-b]pyridine-3-carbonitrile]
301 to 1000 | 301 to 1000 | 301 to 1000 | 101 to 300 | < 100 | 51 to 100 | CCCNc1cc(Nc2ccc(S(=O)(=O)N3CCOCC3)cc2OC)nc2[nH]cc(C#N)c12 [Example 133, 6-((2-methoxy-4-(morpholinosulfonyl)phenyl)amino)-4-(propylamino)-1H-pyrrolo[2,3-b]pyridine-3-carbonitrile]
301 to 1000 | < 100 | 101 to 300 | < 50 | < 100 | < 50 | COc1cc(S(=O)(=O)N2CCC(N3CCOCC3)CC2)ccc1Nc1cc(NC2CC2)c2c(C#N)c[nH]c2n1 [Example 134, 4-(cyclopropylamino)-6-((2-methoxy-4-((4-morpholinopiperidin-1-yl)sulfonyl)phenyl)amino)-1H-pyrrolo[2,3-b]pyridine-3-carbonitrile]
301 to 1000 | < 100 | 301 to 1000 | 51 to 100 | < 100 | < 50 | COc1cc(S(=O)(=O)N2CCC(N3CCOCC3)CC2)ccc1Nc1cc(NC2CCC2)c2c(C#N)c[nH]c2n1 [Example 135, 4-(cyclobutylamino)-6-((2-methoxy-4-((4-morpholinopiperidin-1-yl)sulfonyl)phenyl)amino)-1H-pyrrolo[2,3-b]pyridine-3-carbonitrile]
301 to 1000 |  | 301 to 1000 | 301 to 1000 | < 100 | 101 to 300 | COC[C@@H](C)Nc1cc(Nc2ccc(S(=O)(=O)N3CCC(N4CCOCC4)CC3)cc2OC)nc2[nH]cc(C(F)(F)F)c12 [Example 196, (R)-N^6-(2-methoxy-4-((4-morpholinopiperidin-1-yl)sulfonyl)phenyl)-N^4-(1-methoxypropan-2-yl)-3-(trifluoromethyl)-1H-pyrrolo[2,3-b]pyridine-4,6-diamine]
301 to 1000 |  | 301 to 1000 | 301 to 1000 | 301 to 1000 | 301 to 1000 | COc1cc(S(=O)(=O)N2CCC(N3CCOCC3)CC2)ccc1Nc1cc(NC2CCC2)c2c(C(F)(F)F)c[nH]c2n1 [Example 202, N^4-cyclobutyl-N^6-(2-methoxy-4-((4-morpholinopiperidin-1-yl)sulfonyl)phenyl)-3-(trifluoromethyl)-1H-pyrrolo[2,3-b]pyridine-4,6-diamine]
301 to 1000 |  | 301 to 1000 | 301 to 1000 | 301 to 1000 | 301 to 1000 | COc1cc(S(=O)(=O)N2CCOCC2)ccc1Nc1cc(NC2CCC2)c2c(C(F)(F)F)c[nH]c2n1 [Example 203, N^4-cyclobutyl-N^6-(2-methoxy-4-(morpholinosulfonyl)phenyl)-3-(trifluoromethyl)-1H-pyrrolo[2,3-b]pyridine-4,6-diamine]
101 to 300 |  | 301 to 1000 | 301 to 1000 | 101 to 300 | 301 to 1000 | CCOc1cc(Nc2ccc(S(=O)(=O)N3CCC(N4CCOCC4)CC3)cc2OC)nc2[nH]cc(C(F)(F)F)c12 [Example 232, 4-ethoxy-N-(2-methoxy-4-((4-morpholinopiperidin-1-yl)sulfonyl)phenyl)-3-(trifluoromethyl)-1H-pyrrolo[2,3-b]pyridin-6-amine]
